Laboratory results taken from patent US20040082021A1, “Method for assaying compounds or agents for ability to decrease the activity of microsomal prostaglandin E synthase or hematopoietic prostaglandin D synthase” (Aventis Pharmaceuticals Inc., priority 2002, published 2004).

Biological target: T1, human hPGDS (Homo sapiens, UniProt O60760)
T1 construct: made in house; host or cells: E. coli FL21 (DE3) as printed, pT7-7 vector
Assay: Fluorescence polarization assay of hematopoietic prostaglandin D synthase (hPGDS)
Type: biochemical
Details: conversion of PGH2 to PGD2, FIG. 8 histogram
Description: A fluorescence polarization (FP) assay to measure hPGDS activity has also been developed (FIGS. 3 and 4). The assay is configured based on the fluorescence polarization principle. hPGDS was mixed with PGH2, glutathione, and the compound or agent being evaluated. After a short period of time (about 30 seconds), a stop solution containing FeCl2 (20 mM) was added to quench any remaining PGH2, which would undergo spontaneous conversion to a mixture of PGD2 and PGE2, and thus interfere with the quantification of the enzymatic conversion of PGH2 to PGD2 (FIG. 3). A detection solution containing a fluorescence labeled (Texas Red) tracer (PGD2) and anti-PGD2 antibody was then added in order to generate the specific signal that is inversely proportional to the production of PGD2 (FIG. 4). The PGD2 generated from the enzymatic reaction competed specifically for the antibody and released the fluorescence labeled tracer. For reasons discussed above, a decrease or inhibition of PGD2 synthase activity results in increased fluorescence polarization (FP) value. […]
A control mixture was prepared that was identical to the mixture containing the enzyme, wherein the control mixture was treated in a manner identical the mixture containing the enzyme, i.e., same incubation durations, etc. […] The fluorescence polarization measurement was made while the measuring instrument is in FP mode. […]

T1 sequence (O60760 whole entry): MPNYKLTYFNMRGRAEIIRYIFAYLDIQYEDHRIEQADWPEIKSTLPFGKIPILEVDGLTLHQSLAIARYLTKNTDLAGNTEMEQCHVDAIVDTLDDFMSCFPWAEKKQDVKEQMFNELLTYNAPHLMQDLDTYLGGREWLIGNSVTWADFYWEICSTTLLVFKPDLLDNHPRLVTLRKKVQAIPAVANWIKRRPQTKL

- decrease in activity of hPGDS detected by FP method: decreases the activity of hPGDS
SMILES: c1ccc(C(OC2CCN(CCCc3nn[nH]n3)CC2)c2ccccc2)cc1 [HQL 79]
